Experimental data taken from patent publication US9695155B2, “Herbicidal substituted pyrimidinyloxy benzene compounds” (E. I. DU PONT DE NEMOURS AND COMPANY, priority 2013, dated 2017).

Tests used:
Test in all cases: Test F preemergence
Conditions in all cases: 21 days, scale 0 to 100
surinam grass = assay type: in vivo, Brachiaria decumbens
From the text: (§1) Seeds of plant species selected from bermudagrass (Cynodon dactylon), surinam grass (Brachiaria decumbens), large (Lg) crabgrass (Digitaria sanguinalis), crabgrass, naked (naked crabgrass, Digitaria nuda), foxtail, green (green foxtail, Setaria viridis), johnsongrass (Sorghum halepense), kochia (Kochia scoparia), morningglory (pitted morningglory, Ipomoea lacunosa), nutsedge, purple (purple nutsedge, Cyperus rotundus), ragweed (common ragweed, Ambrosia elatior), mustard, black (black mustard, Brassica nigra), guineagrass (Panicum maximum), dallisgrass (Paspalum dilatatum), barnyardgrass (Echinochloa crus-galli), sandbur (southern sandbur, Cenchrus echinatus), sowthistle (common sowthistle, Sonchus oleraceous), Italian ryegrass (Lolium multiflorum), signalgrass (broadleaf signalgrass, Brachiaria platyphylla), dayflower (Virginia (VA) dayflower, Commelina virginica), bluegrass (annual bluegrass, Poa annua), quackgrass (Elytrigia repens), mallow (common mallow, Malva sylvestris), buckwheat, wild (wild buckwheat, Polygonum convolvulus), leafy spurge (Euphorbia esula), chickweed (common chickweed, Stellaria media), wild poinsettia (Euphorbia heterophylla), and pigweed (Amaranthus retroflexus) were planted into a blend of loam soil and sand and treated preemergence with test chemicals formulated in a non-phytotoxic solvent mixture which included a surfactant.
(§2) Treated plants and controls were maintained in a greenhouse for 21 days, after which time all species were compared to controls and visually evaluated. Plant response ratings, summarized in Table F, are based on a scale of 0 to 100 where 0 is no effect and 100 is complete control. A dash (-) response means no test result.

buckwheat, wild = assay type: in vivo, Polygonum convolvulus
From the text: as §1, §2

barnyardgrass = assay type: in vivo, Echinochloa crus-galli
From the text: as §1, §2

[1] = test system: morningglory (pitted morningglory); assay type: in vivo, Ipomoea lacunosa
From the text: as §1, §2

dallisgrass = assay type: in vivo, Paspalum dilatatum
From the text: as §1, §2

bluegrass = assay type: in vivo, Poa annua
From the text: as §1, §2

| Compound | Plant response rating, Surinam Grass (surinam grass; 16 g ai/ha) | Plant response rating, Surinam Grass (surinam grass; 31 g ai/ha) | Plant response rating, Surinam Grass (surinam grass; 62 g ai/ha) | Plant response rating, Surinam Grass (surinam grass; 125 g ai/ha) | Plant response rating, Surinam Grass (surinam grass; 250 g ai/ha) | Plant response rating, Buckwheat, Wild (buckwheat, wild; 16 g ai/ha) | Plant response rating, Buckwheat, Wild (buckwheat, wild; 31 g ai/ha) | Plant response rating, Buckwheat, Wild (buckwheat, wild; 62 g ai/ha) | Plant response rating, Buckwheat, Wild (buckwheat, wild; 125 g ai/ha) | Plant response rating, Buckwheat, Wild (buckwheat, wild; 250 g ai/ha) | Plant response rating, Barnyardgrass (barnyardgrass; 16 g ai/ha) | Plant response rating, Barnyardgrass (barnyardgrass; 31 g ai/ha) | Plant response rating, Barnyardgrass (barnyardgrass; 62 g ai/ha) | Plant response rating, Barnyardgrass (barnyardgrass; 125 g ai/ha) | Plant response rating, Barnyardgrass (barnyardgrass; 250 g ai/ha) | Plant response rating, Morningglory ([1]; 16 g ai/ha) | Plant response rating, Morningglory ([1]; 31 g ai/ha) | Plant response rating, Morningglory ([1]; 62 g ai/ha) | Plant response rating, Morningglory ([1]; 125 g ai/ha) | Plant response rating, Morningglory ([1]; 250 g ai/ha) | further results |
| --- | --- | --- | --- | --- | --- | --- | --- | --- | --- | --- | --- | --- | --- | --- | --- | --- | --- | --- | --- | --- | --- |
| N#Cc1cccc(Oc2ncc(Cl)cn2)c1-n1cc(OC(F)F)cn1 [Compound 97] | 0 | 10 | 50 | 90 | 100 | 85 | 100 | 100 | 100 | 100 | 0 | 90 | 95 | 100 | 100 | 10 | 60 | 90 | 98 | 100 | Plant response rating, Dallisgrass (dallisgrass; 16 g ai/ha): 75; Plant response rating, Dallisgrass (dallisgrass; 31 g ai/ha): 98; Plant response rating, Dallisgrass (dallisgrass; 62 g ai/ha): 100; Plant response rating, Dallisgrass (dallisgrass; 125 g ai/ha): 100; Plant response rating, Dallisgrass (dallisgrass; 250 g ai/ha): 100; Plant response rating, Bluegrass (bluegrass; 16 g ai/ha): 5; Plant response rating, Bluegrass (bluegrass; 31 g ai/ha): 35; Plant response rating, Bluegrass (bluegrass; 62 g ai/ha): 75; Plant response rating, Bluegrass (bluegrass; 125 g ai/ha): 98; Plant response rating, Bluegrass (bluegrass; 250 g ai/ha): 100 |
| N#Cc1cccc(Oc2ncc(F)cn2)c1-n1cc(C(F)(F)F)cn1 [Compound 79, 3-[(5-fluoro-2-pyrimidinyl)oxy]-2-[4-(trifluoromethyl)-1H-pyrazol-1-yl]benzonitrile] | 75 | 90 | 95 | 100 | 100 | 98 | 100 | 100 | 100 | 100 | 75 | 100 | 100 | 100 | 100 | 98 | 100 | 100 | 100 | 100 | Plant response rating, Dallisgrass (dallisgrass; 16 g ai/ha): 65; Plant response rating, Dallisgrass (dallisgrass; 31 g ai/ha): 98; Plant response rating, Dallisgrass (dallisgrass; 62 g ai/ha): 100; Plant response rating, Dallisgrass (dallisgrass; 125 g ai/ha): 100; Plant response rating, Dallisgrass (dallisgrass; 250 g ai/ha): 100; Plant response rating, Bluegrass (bluegrass; 16 g ai/ha): 50; Plant response rating, Bluegrass (bluegrass; 31 g ai/ha): 75; Plant response rating, Bluegrass (bluegrass; 62 g ai/ha): 98; Plant response rating, Bluegrass (bluegrass; 125 g ai/ha): 100; Plant response rating, Bluegrass (bluegrass; 250 g ai/ha): 100 |
